In ChEMBL document CHEMBL1201862, “PubChem BioAssay data set” (2004):
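Five compound concentrations were applied to cells in 96-well plates for 48 hours; endpoints were derived by simple linear interpolation of the resulting dose-response curve. At the GI50, growth is halved.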 Active and inactive are the calls of the source. No stated cut-off is given here; in the data, active = GI50 up to about 1.1 µM and inactive = higher.

Experiments:
Experiment in all cases: inhibition of tumour cell growth, NCI panel, 48 h
SNB-75 = tested on: SNB-75
HCT-15 = tested on: HCT-15
SR = tested on: SR
KM12 = tested on: KM12
ACHN = tested on: ACHN
SF-539 = tested on: SF-539
SN12C = tested on: SN12C
XF498 = tested on: XF498
SNB-19 = tested on: SNB-19
CCRF-CEM = tested on: CCRF-CEM
LOX IMVI = tested on: LOX IMVI
UO-31 = tested on: UO-31
TK-10 = tested on: TK-10
K562 = tested on: K562
A549 = tested on: A549
OVCAR-5 = tested on: OVCAR-5
CAKI-1 = tested on: CAKI-1

In the case of CCN(CC)C(=O)c1c(N2CCOCC2)cc(N(CC)CC)oc1=O, the GI50 (SNB-75) is reported as > 100 µM (inactive), the GI50 (HCT-15) is reported as over 100 µM and the GI50 (SR) is reported as > 100 µM (inactive). For the same molecule, the GI50 (KM12) was > 100 µM (inactive), the GI50 (ACHN) was > 100 µM (inactive) and the GI50 (SF-539) was > 100 µM (inactive). For the same molecule, the GI50 (SN12C) was > 100 µM (inactive), the GI50 (XF498) was > 100 µM (inactive) and the GI50 (SNB-19) was > 100 µM (inactive). The GI50 (CCRF-CEM) was > 100 µM (inactive), the GI50 (LOX IMVI) was > 100 µM (inactive) and the GI50 (UO-31) was > 100 µM (inactive). The GI50 (TK-10) was > 100 µM (inactive), the GI50 (K562) was > 100 µM (inactive) and the GI50 (A549) was > 100 µM (inactive).
In the case of CC(C)C(Sc1nc(-c2ccccc2)c(-c2ccccc2)[nH]1)C(=O)NNC(=S)Nc1ccccc1 (stereo not drawn), the GI50 (SNB-75) is reported as 19.5 µM (inactive), the GI50 (HCT-15) is reported as 17.9 µM and the GI50 (SR) is reported as 5.61 µM (inactive). For the same molecule, the GI50 (KM12) was 14.7 µM (inactive), the GI50 (ACHN) was 25.1 µM (inactive) and the GI50 (SF-539) was 21.4 µM (inactive). For the same molecule, the GI50 (SN12C) was 17.5 µM (inactive), the GI50 (XF498) was 18.4 µM (inactive) and the GI50 (SNB-19) was 41.9 µM (inactive). For the same molecule, the GI50 (CCRF-CEM) was 11.6 µM (inactive), the GI50 (LOX IMVI) was 15.9 µM (inactive) and the GI50 (OVCAR-5) was 16.7 µM (inactive). For the same molecule, the GI50 (UO-31) was 17.8 µM (inactive), the GI50 (TK-10) was 29.3 µM (inactive) and the GI50 (A549) was 25.5 µM (inactive).
C/C(=N\NC(=S)N(C)C)c1ncc[nH]1 was tested, and the GI50 (SNB-75) was 7.57 µM (inactive), the GI50 (HCT-15) was 3.77 µM and the GI50 (SR) was 2.81 µM (inactive). For the same molecule, the GI50 (KM12) was 5.21 µM (inactive), the GI50 (ACHN) was 2.45 µM (inactive) and the GI50 (SF-539) was 2.77 µM (inactive). For the same molecule, the GI50 (SN12C) was 3.95 µM (inactive), the GI50 (XF498) was 4.73 µM (inactive) and the GI50 (SNB-19) was 4.42 µM (inactive). For the same molecule, the GI50 (CCRF-CEM) was 2.82 µM (inactive), the GI50 (LOX IMVI) was 3.08 µM (inactive) and the GI50 (OVCAR-5) was 2.55 µM (inactive). The GI50 (UO-31) was 2.1 µM (inactive), the GI50 (TK-10) was 13.3 µM (inactive) and the GI50 (K562) was 2.59 µM (inactive). For the same molecule, the GI50 (A549) was 3.38 µM (inactive).
In the case of CCC1CC2C(=O)N(c3ccccc3)C(=O)C2c2[nH]c3ccccc3c21 (stereo not drawn), the GI50 (SNB-75) is reported as 3.08 µM (inactive), the GI50 (HCT-15) is reported as 60.8 µM and the GI50 (SR) is reported as 23.1 µM (inactive). The GI50 (KM12) was 31.2 µM (inactive), the GI50 (ACHN) was 20.2 µM (inactive) and the GI50 (SN12C) was 19.6 µM (inactive). The GI50 (XF498) was 16.7 µM (inactive), the GI50 (SNB-19) was 22.9 µM (inactive) and the GI50 (CCRF-CEM) was 26.9 µM (inactive). For the same molecule, the GI50 (LOX IMVI) was 17.1 µM (inactive), the GI50 (OVCAR-5) was > 100 µM (inactive) and the GI50 (UO-31) was 31.6 µM (inactive). For the same molecule, the GI50 (TK-10) was 31.9 µM (inactive), the GI50 (K562) was 25.4 µM (inactive) and the GI50 (A549) was 24.6 µM (inactive).
With COc1cc2c(c(OC(C)=O)c1OC(C)=O)-c1ccc(SC)c(=O)cc1C(NC(C)=O)CC2 (stereo not drawn) the GI50 (SNB-75) was 0.255 µM (active), the GI50 (HCT-15) was 31.7 µM and the GI50 (SR) was 0.964 µM (active). For the same molecule, the GI50 (KM12) was 0.544 µM (active), the GI50 (ACHN) was 24 µM (inactive) and the GI50 (SF-539) was 0.494 µM (active). For the same molecule, the GI50 (SN12C) was 4.52 µM (inactive), the GI50 (XF498) was 2.75 µM (inactive) and the GI50 (SNB-19) was 2.65 µM (inactive). For the same molecule, the GI50 (CAKI-1) was 11.2 µM (inactive), the GI50 (CCRF-CEM) was 0.631 µM (active) and the GI50 (LOX IMVI) was 1.13 µM (inactive). For the same molecule, the GI50 (OVCAR-5) was > 50.1 µM (inactive), the GI50 (UO-31) was 89.1 µM (inactive) and the GI50 (TK-10) was 28.7 µM (inactive). For the same molecule, the GI50 (K562) was 0.483 µM (active) and the GI50 (A549) was 3.73 µM (inactive).
In the case of Clc1ccc(C[P+]2(c3ccccc3)CCCCC2)cc1.[O-][Cl+3]([O-])([O-])[O-], the GI50 (SNB-75) is reported as 37.1 µM (inactive), the GI50 (HCT-15) is reported as over 100 µM and the GI50 (SR) is reported as 48.6 µM (inactive). The GI50 (KM12) was 77.4 µM (inactive), the GI50 (ACHN) was > 100 µM (inactive) and the GI50 (SF-539) was > 100 µM (inactive). For the same molecule, the GI50 (SN12C) was > 100 µM (inactive), the GI50 (XF498) was 44 µM (inactive) and the GI50 (SNB-19) was 66.8 µM (inactive). The GI50 (CCRF-CEM) was 75.9 µM (inactive), the GI50 (LOX IMVI) was 77.3 µM (inactive) and the GI50 (OVCAR-5) was > 100 µM (inactive). For the same molecule, the GI50 (UO-31) was > 100 µM (inactive), the GI50 (TK-10) was 77.8 µM (inactive) and the GI50 (K562) was 78.2 µM (inactive). For the same molecule, the GI50 (A549) was > 100 µM (inactive).
For Cc1cc(S(=O)(=O)O)c(NC(=O)C(=O)C2C=CCS2(=O)=O)cc1Cl (stereo not drawn), the GI50 (SNB-75) was > 100 µM (inactive), the GI50 (HCT-15) was over 100 µM and the GI50 (SR) was > 100 µM (inactive). For the same molecule, the GI50 (KM12) was > 100 µM (inactive), the GI50 (ACHN) was > 100 µM (inactive) and the GI50 (SF-539) was > 100 µM (inactive). For the same molecule, the GI50 (SN12C) was > 100 µM (inactive), the GI50 (XF498) was > 100 µM (inactive) and the GI50 (SNB-19) was > 100 µM (inactive). The GI50 (CAKI-1) was > 100 µM (inactive), the GI50 (CCRF-CEM) was > 100 µM (inactive) and the GI50 (LOX IMVI) was > 100 µM (inactive). For the same molecule, the GI50 (OVCAR-5) was > 100 µM (inactive), the GI50 (UO-31) was > 100 µM (inactive) and the GI50 (TK-10) was > 100 µM (inactive). For the same molecule, the GI50 (K562) was > 100 µM (inactive) and the GI50 (A549) was > 100 µM (inactive).
In the case of O=C1c2ccccc2S[C@@H](O)[C@@H]2CCCN12, the GI50 (HCT-15) is reported as over 100 µM, the GI50 (SR) is reported as > 100 µM (inactive) and the GI50 (KM12) is reported as > 100 µM (inactive). The GI50 (ACHN) was > 100 µM (inactive), the GI50 (SF-539) was > 100 µM (inactive) and the GI50 (SN12C) was > 100 µM (inactive). The GI50 (XF498) was 39.6 µM (inactive), the GI50 (SNB-19) was > 100 µM (inactive) and the GI50 (CCRF-CEM) was > 100 µM (inactive). The GI50 (LOX IMVI) was > 100 µM (inactive), the GI50 (OVCAR-5) was > 100 µM (inactive) and the GI50 (UO-31) was > 100 µM (inactive). The GI50 (TK-10) was > 100 µM (inactive), the GI50 (K562) was > 100 µM (inactive) and the GI50 (A549) was > 100 µM (inactive).
For CC(=O)NC1=C(C)C(=O)c2c(nc3n2CCC3O)C1=O (stereo not drawn), the GI50 (SNB-75) was > 100 µM (inactive), the GI50 (HCT-15) was over 100 µM and the GI50 (SR) was 9.46 µM (inactive). The GI50 (KM12) was > 100 µM (inactive), the GI50 (ACHN) was > 100 µM (inactive) and the GI50 (SF-539) was 24.4 µM (inactive). The GI50 (SN12C) was 37.3 µM (inactive), the GI50 (XF498) was 18.2 µM (inactive) and the GI50 (SNB-19) was > 100 µM (inactive). For the same molecule, the GI50 (CAKI-1) was > 100 µM (inactive), the GI50 (CCRF-CEM) was 4.24 µM (inactive) and the GI50 (LOX IMVI) was 29.7 µM (inactive). For the same molecule, the GI50 (OVCAR-5) was > 64.3 µM (inactive), the GI50 (UO-31) was > 100 µM (inactive) and the GI50 (TK-10) was > 100 µM (inactive). The GI50 (K562) was 19.1 µM (inactive) and the GI50 (A549) was > 64 µM (inactive).
